The test system of one data set is S. aureus. It counts as cell-based, Staphylococcus aureus. The essentials: (§1)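 Broth microdilution; anion-exchange-refined MHB; overnight culture at 37° C, diluted and regrown; inoculum 5×10^5 CFU/ml final; peptides serially diluted in water; 20-24 h, 37° C; MIC = lowest concentration without visible growth.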
The subject of the next data set is B. cereus. It counts as cell-based, Bacillus cereus. The method, boiled down: as §1
A further data set concerns E. coli. It counts as cell-based, Escherichia coli. The essentials:
as §1

The test system of the next data set is P. aeruginosa. It counts as cell-based, Pseudomonas aeruginosa. The essentials: as §1
Another data set has as its system human red blood cells. The data set is classed as cell-based. As to conditions: for % Hemolysis at 25 μg/ml: red cells of human, 1 h. The essentials: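 Hemolysis expressed as absorbance of released hemoglobin (570 nm) normalized between untreated and 1% Triton-X100 controls, with MHC taken as peptide concentration giving under 1% release. Peptide dilutions were exposed for 1 h at 37° C to a 1% (v/v) suspension of washed human red cells in PBS.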

A further data set deals with S. marcescens. The data set is classed as cell-based. The procedure: Antimicrobial Activity Assay:
The following microbroth dilution protocol was adapted to determine the minimum inhibitory concentration (MIC) of each peptide. First, Mueller-Hinton broth (MHB) was passed through an anion exchange column to remove polyanionic species and generate refined MHB. […] Briefly, bacterial cells was grown overnight in refined MHB at 37° C. and then diluted and allowed to grow again for several hours. Serial dilutions of peptide stocks in water (10 μl) were prepared using clear round-bottom polypropylene 96-well plates. Then 90 μl of bacteria in refined MHB was added to give a final inoculum of 5×10^5 CFU/ml. The plates were then covered with porous tape to reduce evaporation, and incubated for 20-24 hours at 37° C. The MIC is the minimum peptide concentration at which no visible growth was observed.

≈ marks a conversion by molar mass, not a printed value. Bridge positions count the residues as written; N and C are the ends. Square brackets hold non-standard residues; d marks the D form. Ends that are not written are not given here. Peptide text beside a SMILES is read from it. R8 = C=CCCCCCC[C@@](C)(N)C(=O)O; S5 = C=CCCC[C@](C)(N)C(=O)O; Nle = CCCC[C@H](N)C(=O)O

For the molecule `CCCC[C@@H]1NC(=O)[C@H]([C@@H](C)CC)NC(=O)[C@H](CCC(=O)O)NC(=O)CNC(=O)[C@H](C(C)C)NC(=O)[C@H](Cc2ccccc2)NC(=O)[C@](C)(NC(=O)[C@H](CCCCN)NC(=O)CNC(=O)[C@H](Cc2ccccc2)NC(=O)[C@H](CCCCN)NC(=O)[C@H](CCCCN)NC(=O)[C@H](C)NC(=O)[C@H](CO)NC(=O)[C@H](Cc2c[nH]cn2)NC(=O)[C@H](CC(C)C)NC(=O)[C@H](Cc2ccccc2)NC(=O)[C@H](CCCCN)NC(=O)CNC(=O)[C@@H](NC(=O)CN)[C@@H](C)CC)CCCCCCC=CCCC[C@@](C)(C(=O)N[C@@H](CO)C(N)=O)NC1=O` [Mag(i + 7)14] (H-GIGKFLHSAKKFGK[R8]FVGEI[Nle][S5]S-NH2; staple 15-22 (inferred); N-terminus and C-terminus assumed), the “MIC S. aureus” value with S. aureus is 1.6 µg/mL. Also, the “MIC B. cereus” value in the data set on B. cereus amounted to 1.6 µg/mL. The “MIC E. coli” value in the data set on E. coli turned out to be 1.6 µg/mL. Besides, the “MIC P. aeruginosa” value in the data set with P. aeruginosa came out at 6.2 µg/mL. Also, the “% Hemolysis at 25 μg/ml” value in the data set with human red blood cells is 68.1%.
For the molecule `CCCC[C@H](NC(=O)[C@@H](NC(=O)[C@H](CCC(=O)O)NC(=O)[C@H](C)NC(=O)[C@]1(C)CCCC=CCCCCCC[C@@](C)(NC(=O)[C@H](C)NC(=O)[C@H](C)NC(=O)[C@H](Cc2c[nH]cn2)NC(=O)[C@H](CC(C)C)NC(=O)[C@H](Cc2ccccc2)NC(=O)[C@H](CCCCN)NC(=O)CNC(=O)[C@@H](NC(=O)CN)[C@@H](C)CC)C(=O)N[C@@H](CCCCN)C(=O)N[C@@H](Cc2ccccc2)C(=O)N[C@@H](C)C(=O)N[C@@H](CCCCN)C(=O)N[C@@H](C)C(=O)N[C@@H](Cc2ccccc2)C(=O)N1)[C@@H](C)CC)C(=O)N[C@@H](CC(N)=O)C(=O)N[C@@H](CO)C(N)=O` [MagStap 4] (H-GIGKFLHAA[R8]KFAKAF[S5]AEI[Nle]NS-NH2; staple 10-17; N-terminus assumed), the “MIC B. cereus” value with B. cereus worked out at 6.2 µg/mL (≈ 2.46 µM). Moreover, the “MIC E. coli” value against E. coli stood at 12.5 µg/mL (≈ 4.95 µM). In addition, the “MIC S. marcescens” value against S. marcescens is over 50 µg/mL. The “hemolytic activity (in words)” value in the data set with human red blood cells is given as “highest hemolytic activity”.
For `CCCC[C@H](NC(=O)[C@@H](NC(=O)[C@H](CCC(=O)O)NC(=O)[C@]1(C)CCCC=CCCCCCC[C@@](C)(NC(=O)[C@H](CCCCN)NC(=O)[C@H](C)NC(=O)[C@H](C)NC(=O)[C@H](Cc2c[nH]cn2)NC(=O)[C@H](CC(C)C)NC(=O)[C@H](Cc2ccccc2)NC(=O)[C@H](CCCCN)NC(=O)CNC(=O)[C@@H](NC(=O)CN)[C@@H](C)CC)C(=O)N[C@@H](Cc2ccccc2)C(=O)N[C@@H](C)C(=O)N[C@@H](CCCCN)C(=O)N[C@@H](C)C(=O)N[C@@H](Cc2ccccc2)C(=O)N[C@@H](C(C)C)C(=O)N1)[C@@H](C)CC)C(=O)N[C@@H](CC(N)=O)C(=O)N[C@@H](CO)C(N)=O` [MagStap 5] (H-GIGKFLHAAK[R8]FAKAFV[S5]EI[Nle]NS-NH2; staple 11-18; N-terminus assumed), the “MIC B. cereus” value with B. cereus was determined as 12.5 µg/mL (≈ 4.9 µM). The “MIC E. coli” value with E. coli was determined as 12.5 µg/mL (≈ 4.9 µM). In addition, in the data set on S. marcescens, the “MIC S. marcescens” value was over 50 µg/mL. The “hemolytic activity (in words)” value in the data set on human red blood cells is given as “lowest hemolytic activity”.
In the case of `CCCC[C@H](NC(=O)[C@@H](NC(=O)[C@]1(C)CCCC=CCCCCCC[C@@](C)(NC(=O)[C@H](CCCCN)NC(=O)[C@H](CCCCN)NC(=O)[C@H](C)NC(=O)[C@H](C)NC(=O)[C@H](Cc2c[nH]cn2)NC(=O)[C@H](CC(C)C)NC(=O)[C@H](Cc2ccccc2)NC(=O)[C@H](CCCCN)NC(=O)CNC(=O)[C@@H](NC(=O)CN)[C@@H](C)CC)C(=O)N[C@@H](C)C(=O)N[C@@H](CCCCN)C(=O)N[C@@H](C)C(=O)N[C@@H](Cc2ccccc2)C(=O)N[C@@H](C(C)C)C(=O)N[C@@H](C)C(=O)N1)[C@@H](C)CC)C(=O)N[C@@H](CC(N)=O)C(=O)N[C@@H](CO)C(N)=O` [MagStap 6] (H-GIGKFLHAAKK[R8]AKAFVA[S5]I[Nle]NS-NH2; staple 12-19; N-terminus assumed), the “MIC B. cereus” value in the data set on B. cereus was determined as 3.1 µg/mL (≈ 1.25 µM). Further, the “MIC E. coli” value against E. coli stood at 3.1 µg/mL (≈ 1.25 µM). For the same molecule, the “MIC S. marcescens” value with S. marcescens was over 50 µg/mL.
Regarding `CCCC[C@H](NC(=O)[C@]1(C)CCCC=CCCCCCC[C@@](C)(NC(=O)[C@H](Cc2ccccc2)NC(=O)[C@H](CCCCN)NC(=O)[C@H](CCCCN)NC(=O)[C@H](C)NC(=O)[C@H](C)NC(=O)[C@H](Cc2c[nH]cn2)NC(=O)[C@H](CC(C)C)NC(=O)[C@H](Cc2ccccc2)NC(=O)[C@H](CCCCN)NC(=O)CNC(=O)[C@@H](NC(=O)CN)[C@@H](C)CC)C(=O)N[C@@H](CCCCN)C(=O)N[C@@H](C)C(=O)N[C@@H](Cc2ccccc2)C(=O)N[C@@H](C(C)C)C(=O)N[C@@H](C)C(=O)N[C@@H](CCC(=O)O)C(=O)N1)C(=O)N[C@@H](CC(N)=O)C(=O)N[C@@H](CO)C(N)=O` [MagStap 7] (H-GIGKFLHAAKKF[R8]KAFVAE[S5][Nle]NS-NH2; staple 13-20; N-terminus assumed), in the data set on B. cereus, the “MIC B. cereus” value worked out at 6.2 µg/mL (≈ 2.41 µM). Moreover, the “MIC E. coli” value with E. coli stood at 6.2 µg/mL (≈ 2.41 µM). The “MIC S. marcescens” value against S. marcescens was over 50 µg/mL.
Consider `CC[C@H](C)[C@H](NC(=O)CN)C(=O)NCC(=O)N[C@@H](CCCCN)C(=O)N[C@@H](Cc1ccccc1)C(=O)N[C@@H](CC(C)C)C(=O)N[C@@H](CCCCN)C(=O)N[C@]1(C)CCCCCCC=CCCC[C@@](C)(C(=O)N[C@@H](Cc2ccccc2)C(=O)N[C@H](C(=O)N[C@@H](CCCCN)C(=O)N[C@H](C(=O)N[C@@H](CC(C)C)C(=O)N[C@@H](CCCCN)C(=O)N[C@@H](CCCCN)C(N)=O)[C@@H](C)CC)C(C)C)NC(=O)[C@H](CCCCN)NC(=O)CNC(=O)[C@H](Cc2ccccc2)NC(=O)[C@H](CCCCN)NC(=O)[C@H](CCCCN)NC(=O)[C@H](C)NC1=O` [PexStap 2] (H-GIGKFLK[R8]AKKFGK[S5]FVKILKK-NH2; staple 8-15; N-terminus assumed), for which the “MIC S. aureus” value with S. aureus was 3.1 µg/mL (≈ 1.21 µM). Moreover, the “MIC B. cereus” value against B. cereus amounted to 3.1 µg/mL (≈ 1.21 µM). Also, in the data set on E. coli, the “MIC E. coli” value is 3.1 µg/mL (≈ 1.21 µM). For the same molecule, in the data set with P. aeruginosa, the “MIC P. aeruginosa” value is 3.1 µg/mL (≈ 1.21 µM). The “MIC S. marcescens” value against S. marcescens was over 50 µg/mL.
As for `CC(C)C[C@H](NC(=O)[C@H](Cc1ccc(O)cc1)NC(=O)[C@H](Cc1c[nH]cn1)NC(=O)[C@@H](NC(=O)[C@H](CC(C)C)NC(=O)[C@]1(C)CCCC=CCCC[C@](C)(NC(=O)[C@H](Cc2c[nH]cn2)NC(=O)[C@H](CCCCN)NC(=O)CNC(=O)[C@@H](NC(=O)[C@H](Cc2c[nH]cn2)NC(=O)[C@H](C)NC(=O)[C@H](CCCCN)NC(=O)[C@H](CCCCN)NC(=O)[C@H](CCCCN)NC(=O)[C@]2(C)CCCC=CCCC[C@](C)(NC(=O)CN)C(=O)NCC(=O)N[C@@H](CO)C(=O)N[C@@H](Cc3ccccc3)C(=O)N2)C(C)C)C(=O)NCC(=O)N[C@@H](CCCCN)C(=O)N[C@@H](C)C(=O)N1)[C@@H](C)O)C(N)=O` [Pleu(i + 4)1, 15(A9K)] (H-G[S5]GSF[S5]KKKAHVGKH[S5]GKA[S5]LTHYL-NH2; staple 2-6, 16-20; N-terminus assumed), the “MIC S. aureus” value in the data set on S. aureus is 3.1 µg/mL. In the data set with B. cereus, the “MIC B. cereus” value stood at 3.1 µg/mL. Also, the “MIC E. coli” value in the data set with E. coli stood at 1.6 µg/mL. Besides, the “MIC P. aeruginosa” value with P. aeruginosa was 1.6 µg/mL. In addition, the “% Hemolysis at 25 μg/ml” value with human red blood cells is 16.3%.
`CC(C)C[C@H](NC(=O)[C@H](Cc1ccc(O)cc1)NC(=O)[C@H](Cc1c[nH]cn1)NC(=O)[C@@H](NC(=O)[C@H](CC(C)C)NC(=O)[C@]1(C)CCCC=CCCC[C@](C)(NC(=O)[C@H](Cc2c[nH]cn2)NC(=O)[C@H](CCCCN)NC(=O)CNC(=O)[C@@H](NC(=O)[C@H](Cc2c[nH]cn2)NC(=O)[C@H](C)NC(=O)[C@H](C)NC(=O)[C@H](CCCCN)NC(=O)[C@H](CCCCN)NC(=O)[C@]2(C)CCCC=CCCC[C@](C)(NC(=O)CN)C(=O)NCC(=O)N[C@@H](CO)C(=O)N[C@@H](Cc3ccccc3)C(=O)N2)C(C)C)C(=O)NCC(=O)N[C@@H](CCCCN)C(=O)N[C@@H](C)C(=O)N1)[C@@H](C)O)C(N)=O` [Pleu(i + 4)1, 15] (H-G[S5]GSF[S5]KKAAHVGKH[S5]GKA[S5]LTHYL-NH2; staple 2-6, 16-20; N-terminus assumed): the “MIC S. aureus” value against S. aureus was 1.6 µg/mL. Besides, the “MIC B. cereus” value against B. cereus turned out to be 3.1 µg/mL. Also, the “MIC E. coli” value in the data set on E. coli was 1.6 µg/mL. Also, the “MIC P. aeruginosa” value against P. aeruginosa amounted to 1.6 µg/mL. Besides, in the data set with human red blood cells, the “% Hemolysis at 25 μg/ml” value is 88.2%.
“GWGSFFKKAAHVGKHVGKAALTHYL-NH2 [Pleurocidin-NH2, reference compound]”: the “MIC S. aureus” value against S. aureus stood at 6.2 µg/mL. Further, in the data set with B. cereus, the “MIC B. cereus” value was determined as 6.2 µg/mL. In addition, in the data set on E. coli, the “MIC E. coli” value is 3.1 µg/mL. Besides, the “MIC P. aeruginosa” value in the data set with P. aeruginosa is 3.1 µg/mL. Besides, the “% Hemolysis at 25 μg/ml” value in the data set on human red blood cells is listed as 0.5%.
